Here are results for ten compounds from patent US9481648B2, “Kinase inhibitors” (Respivert Limited, priority 2013, dated 2016).

One assay addresses GSK 3α (Homo sapiens (Human), UniProt P49840). Kind of assay: GSK 3α enzyme inhibition (FRET, Z-LYTE; Method 2). It counts as biochemical. Particulars: read-out: IC50 Values for Enzyme Inhibition GSK3α. Put shortly: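 Z-LYTE FRET assay: GSK3-α (500 ng/mL stock) preincubated 105 min at RT with compound at 10, 1, 0.1 or 0.01 μg/mL stock. FRET peptide (8 μM stock) and ATP (40 μM stock) were then added for 1 h, followed by protease development for 1 h. Phosphorylation was read as coumarin/fluorescein emission ratio.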

Assay [1] relates to β-catenin in d-U937 cells. Kind of assay: Accumulation of β catenin in d-U937 cells (assay m). It counts as cell-based, human. As to the method:
U937 cells, a human monocytic cell line, are differentiated into macrophage-type cells by incubation with PMA (100 ng/mL) for between 48 to 72 hr. The cells are then incubated with either final concentrations of test compound or vehicle for 18 hr. The induction of β-catenin by the test compounds is stopped by replacing the media with 4% formaldehyde solution. Endogenous […] is neutralised by incubating with quenching buffer (100 μL, 0.1% sodium azide, 1% H2O2 in PBS with 0.05% Tween-20) for 20 min. The cells are washed with washing buffer (200 μL; PBS containing 0.05% Tween-20) and incubated with blocking solution (200 μL; 5% milk in PBS) for 1 hr, re-washed with washing buffer (200 μL) and then incubated overnight with anti-β-catenin antibody solution (50 μL) in 1% BSA/PBS (BD, Oxford, UK).
After washing with washing buffer (3×200 μL; PBS containing 0.05% Tween-20), cells are incubated with a HRP-conjugated secondary antibody solution (100 μL) in 1% BSA/PBS (Dako, Cambridge, UK) and the resultant signal is determined colourimetrically (OD: 450 nm with a reference wavelength of 655 nm) using TMB substrate (50 μL; R&D Systems, Abingdon, UK). This reaction is stopped by addition of 1N H2SO4 solution (50 μL). Cells are then washed with washing buffer and 2% crystal violet solution (50 μL) is applied for 30 min. After washing with washing buffer (3×200 μL), 1% SDS (100 μL) is added to each well and the plates are shaken lightly for 1 hr prior to measuring the absorbance at 595 nm (Varioskan® Flash, Thermo-Fisher Scientific).
The measured OD450-655 readings are corrected for cell number by dividing the OD450-655 by the OD595 readings.

The target in the next assay is p38 MAPKα (MAPK14) (Homo sapiens (Human), UniProt Q16539). The assay is described as follows: p38 MAPKα enzyme inhibition (FRET, Z-LYTE; Method 2). In kind it is biochemical. As to the method: (§1) The enzyme inhibitory activities of compounds disclosed herein are determined by FRET using synthetic peptides labelled with both donor and acceptor fluorophores (Z-LYTE, Invitrogen Ltd., Paisley, UK).
The inhibitory activities of test compounds against the p38 MAPKα isoform (MAPK14: Invitrogen) are evaluated indirectly by determining the level of activation\phosphorylation of the down-stream molecule, MAPKAP-K2. The p38 MAPKα protein (80 ng/mL, 2.5 μL) is mixed with the test compound (2.5 μL of either 4 μg/mL, 0.4 μg/mL, 0.04 μg/mL or 0.004 μg/mL) for 2 hr at RT. […] The mixture is incubated for 1 hr at RT. Development reagent (protease, 5 μL) is added for 1 hr prior to detection in a fluorescence microplate reader (Vanoskan® Flash, ThermoFisher Scientific).
(§2) In all cases, the site-specific protease cleaves non-phosphorylated peptide only and eliminates the FRET signal. Phosphorylation levels of each reaction are calculated using the ratio of coumarin emission (donor) over fluorescein emission (acceptor), for which high ratios indicate high phosphorylation and low ratios indicate low phosphorylation levels.

A further assay concerns the target c-Src (Homo sapiens (Human), UniProt P12931). Kind of assay: c-Src enzyme inhibition (FRET, Z-LYTE). It counts as biochemical. The method, then: as §1
(§3) The relevant enzyme (3000 ng/mL or 2000 ng/mL respectively, 2.5 μL) is incubated with the test compound (either 1 μg/mL, 0.1 μg/mL, 0.01 μg/mL, or 0.001 μg/mL, 2.5 μL each) for 2 hr at RT. The FRET peptides (8 μM, 2.5 μL), and appropriate ATP solutions (2.5 μL, 800 μM for c-Src, and 60 μM ATP for Syk) are then added to the enzymes/compound mixtures and the mixture incubated for 1 hr. Development reagent (protease, 5 μL) is added for 1 hr prior to detection in a fluorescence microplate reader (Varioskan® Flash, ThermoFisher Scientific).
as §2

For the next assay, the target named is Syk (Homo sapiens (Human), UniProt P43405). The assay is described as follows: Syk enzyme inhibition (FRET, Z-LYTE). It counts as biochemical. The method, then: as §1, §3, §2

For orientation: IC50 means the concentration needed to halve the response being measured.

Chain of c-Src (P12931 whole entry, looked up): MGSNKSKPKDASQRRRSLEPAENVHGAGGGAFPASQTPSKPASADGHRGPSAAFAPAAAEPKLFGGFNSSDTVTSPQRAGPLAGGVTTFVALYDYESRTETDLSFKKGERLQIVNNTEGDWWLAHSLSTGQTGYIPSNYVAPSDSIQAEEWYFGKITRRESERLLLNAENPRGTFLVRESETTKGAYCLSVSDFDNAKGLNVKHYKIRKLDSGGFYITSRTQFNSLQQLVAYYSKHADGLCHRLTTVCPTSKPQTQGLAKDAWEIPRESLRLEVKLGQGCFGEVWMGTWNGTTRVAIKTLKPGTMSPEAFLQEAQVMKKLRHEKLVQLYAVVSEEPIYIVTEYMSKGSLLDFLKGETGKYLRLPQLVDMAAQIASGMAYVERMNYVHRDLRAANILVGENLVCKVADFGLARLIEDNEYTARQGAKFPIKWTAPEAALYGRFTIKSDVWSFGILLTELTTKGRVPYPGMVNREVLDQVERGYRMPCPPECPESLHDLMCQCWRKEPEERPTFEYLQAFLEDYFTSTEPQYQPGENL
Chain of GSK 3α (P49840 whole entry): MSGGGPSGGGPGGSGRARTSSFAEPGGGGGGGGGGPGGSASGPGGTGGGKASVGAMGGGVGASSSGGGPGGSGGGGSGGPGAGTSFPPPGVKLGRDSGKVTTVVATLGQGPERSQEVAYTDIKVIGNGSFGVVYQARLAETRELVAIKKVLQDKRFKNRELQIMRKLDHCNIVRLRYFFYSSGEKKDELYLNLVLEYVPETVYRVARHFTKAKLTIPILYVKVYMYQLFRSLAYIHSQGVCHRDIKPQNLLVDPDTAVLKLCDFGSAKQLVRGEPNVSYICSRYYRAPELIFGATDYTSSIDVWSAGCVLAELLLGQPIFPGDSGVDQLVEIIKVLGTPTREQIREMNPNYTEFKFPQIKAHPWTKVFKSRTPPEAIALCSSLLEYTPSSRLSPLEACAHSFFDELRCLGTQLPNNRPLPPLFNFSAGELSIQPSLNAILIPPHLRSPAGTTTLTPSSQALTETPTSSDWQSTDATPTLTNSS
Chain of p38 MAPKα (MAPK14) (Q16539 whole entry, canonical isoform): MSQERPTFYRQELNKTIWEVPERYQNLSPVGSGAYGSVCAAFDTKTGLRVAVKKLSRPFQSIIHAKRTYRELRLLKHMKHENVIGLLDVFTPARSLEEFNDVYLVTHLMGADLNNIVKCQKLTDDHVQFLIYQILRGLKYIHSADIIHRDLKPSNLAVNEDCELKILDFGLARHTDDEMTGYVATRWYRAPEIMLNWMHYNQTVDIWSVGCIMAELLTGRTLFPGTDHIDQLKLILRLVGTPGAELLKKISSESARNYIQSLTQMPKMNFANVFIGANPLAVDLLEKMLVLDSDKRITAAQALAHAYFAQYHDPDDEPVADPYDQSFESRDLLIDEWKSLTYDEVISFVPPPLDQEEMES

Consider `COCCOCCOCCOc1cc(Nc2nccc(Oc3ccc(NC(=O)Nc4cc(C(C)(C)C)cc(NS(=O)(=O)N5CCOCC5)c4OC)c4ccccc34)n2)cc(OC)c1` [83(b), N-(5-(tert-butyl)-2-methoxy-3-(3-(4-((2-((3-methoxy-5-(2-(2-(2-methoxyethoxy)ethoxy)-ethoxy)phenyl)amino)pyrimidin-4-yl)oxy)naphthalen-1-yl)ureido)phenyl)morpholine-4-sulfonamide], for which the half-maximal inhibitory concentration (IC50) is 9150 nM at GSK 3α, 246 nM at p38 MAPKα (MAPK14), 48 nM on c-Src and 802 nM on Syk. Also, the “% β-catenin induction” value in assay [1] (test compound 1 μg/mL) is −6%; in assay [1] (test compound 5 μg/mL) it was −9%; in assay [1] (test compound 10 μg/mL), −6%.

Regarding `COc1cc(Nc2cc(Oc3ccc(NC(=O)Nc4cc(C(C)(C)C)cc(NS(C)(=O)=O)c4OC)c4ccccc34)ccn2)cc(OCCOCCOCCO)c1` [84(e), 1-[5-tert-Butyl-3-(methanesulfonamido)-2-methoxy-phenyl]-3-[4-[[2-[3-[2-[2-(2-hydroxyethoxy)ethoxy]ethoxy]-5-methoxy-anilino]-4-pyridyl]oxy]-1-naphthyl]urea], the IC50 on GSK 3α came out at 4470 nM; against p38 MAPKα (MAPK14), 77 nM; on c-Src it was 36 nM; on Syk, 125 nM. The “% β-catenin induction” value in assay [1] (test compound 1 μg/mL) was −1%; in assay [1] (test compound 5 μg/mL), 5%; in assay [1] (test compound 10 μg/mL), 7%.

In the case of `COc1cc(CO)cc(Nc2cc(Oc3ccc(NC(=O)Nc4cc(C(C)(C)C)cc(C(N)=O)c4OC)c4ccccc34)ccn2)c1` [84(g), 5-tert-Butyl-3-[[4-[[2-[3-(hydroxymethyl)-5-methoxyanilino]-4-pyridyl]oxy]-1-naphthyl]carbamoylamino]-2-methoxybenzamide], the half-inhibitory concentration (IC50) at GSK 3α was 2280 nM; at p38 MAPKα (MAPK14) it was 86 nM; against c-Src, 28 nM; against Syk it was 137 nM. For the same compound, the “% β-catenin induction” value in assay [1] (test compound 1 μg/mL) amounted to 1%; in assay [1] (test compound 5 μg/mL), 8%; in assay [1] (test compound 10 μg/mL) it was 7%.

On to `CNC(=O)c1cc(C(C)(C)C)cc(NC(=O)Nc2ccc(Oc3ccnc(Nc4cc(CO)cc(OC)c4)c3)c3ccccc23)c1OC` [84(h), 5-tert-Butyl-3-[[4-[[2-[3-(hydroxymethyl)-5-methoxyanilino]-4-pyridyl]oxy]-1-naphthyl]carbamoylamino]-2-methoxy-N-methyl-benzamide], for which the 50% inhibitory concentration (IC50) on GSK 3α is 1650 nM; on p38 MAPKα (MAPK14) it was 79 nM; against c-Src, 21 nM; against Syk it was 130 nM. The “% β-catenin induction” value in assay [1] (test compound 1 μg/mL) is given as −1%; in assay [1] (test compound 5 μg/mL), 11%; in assay [1] (test compound 10 μg/mL), 10%.

Regarding `C#Cc1cc(Nc2nccc(Oc3ccc(NC(=O)Nc4cc(C(C)(C)C)cc(NS(C)(=O)=O)c4OC)c4ccccc34)n2)cc(C(=O)NCCN2CCOCC2)c1` [Example 1, 3-((4-((4-(3-(5-(tert-Butv)-2-methoxy-3-(methysulfonamido)phenyl)ureido)naphthalen-1-yl)oxy)pyrimidin-2-yl)amino)-5-ethynyl-N-(2-morpholinoethyl)benzamide], the IC50 at GSK 3α worked out at 657 nM; against p38 MAPKα (MAPK14), 118 nM; at c-Src it was 12 nM; on Syk it was 51 nM. For the same compound, the “% β-catenin induction” value is reported as 18% in assay [1] (test compound 1 μg/mL) and 17% in assay [1] (test compound 5 μg/mL).

Turning to `COc1cc(Nc2nccc(Oc3ccc(NC(=O)Nc4cc(C(C)(C)C)cc(NS(C)(=O)=O)c4OC)c4ccccc34)n2)cc(C(=O)NCCN2CCOCC2)c1` [Example 6, 3-((4-((4-(3-(5(tert-Butyl)-2-methoxy-3-(methylsulfonamido)phenyl)ureido)naphthaen-1-yl)oxy)pyrimidin-2-yl)amino)-5-methox-N-(2-morpholinoethyl)benzamide], the IC50 on GSK 3α amounted to 541 nM; against p38 MAPKα (MAPK14), 34 nM; at c-Src, 11 nM; against Syk, 421 nM. Also, the “% β-catenin induction” value amounted to 7% in assay [1] (test compound 1 μg/mL), 20% in assay [1] (test compound 5 μg/mL) and 11% in assay [1] (test compound 10 μg/mL).

Take `COCCOCCOCCNC(=O)c1cc(Nc2nccc(Oc3ccc(NC(=O)Nc4cc(C(C)(C)C)cc(NS(C)(=O)=O)c4OC)c4ccccc34)n2)cc(OC)c1` [Example 7]: the concentration for half-maximal inhibition (IC50) worked out at 516 nM on GSK 3α, 39 nM on p38 MAPKα (MAPK14), 9 nM against c-Src and 554 nM against Syk. Also, the “% β-catenin induction” value worked out at 13% in assay [1] (test compound 1 μg/mL), 29% in assay [1] (test compound 5 μg/mL) and 29% in assay [1] (test compound 10 μg/mL).

For the compound `COCCOCCOCCOc1cc(Nc2nccc(Oc3ccc(NC(=O)Nc4cc(C(C)(C)C)cc(NS(C)(=O)=O)c4OC)c(Cl)c3Cl)n2)cc(OC)c1` [Example 10, N-(5-(tert-Butyl)-3-(3-(2,3-dichloro-4-((2-((3-methoxy-5-(2-(2-(2-methoxyethoxy)ethoxy)-ethoxy)phenyl)amino)pyrimidin-4-yl)oxy)phenyl)ureido)-2-methoxyphenyl)-methanesulfonamide], the half-inhibitory concentration (IC50) at GSK 3α was determined as 1310 nM; against p38 MAPKα (MAPK14) it was 551 nM; at c-Src it was 18 nM; at Syk, 63 nM. Further, the “% β-catenin induction” value in assay [1] (test compound 1 μg/mL) amounted to 12%; in assay [1] (test compound 5 μg/mL), 42%; in assay [1] (test compound 10 μg/mL), 39%.

Turning to `COCCOCCOCCOc1cc(Nc2cc(Oc3ccc(NC(=O)Nc4cc(C(C)(C)C)cc(NS(C)(=O)=O)c4OC)c4ccccc34)ccn2)cc(OC)c1` [Example 11, N-(5-(tert-Butyl)-2-methoxy-3-(3-(4-((2-((3-methoxy-5-(2-(2-(2-methoxyethoxy)ethoxy)-ethoxy)phenyl)amino)pyridin-4-yl)oxy)naphthalen-1-yl)ureido)phenyl)-methanesulfonamide], the 50% inhibitory concentration (IC50) at GSK 3α amounted to 12200 nM; against p38 MAPKα (MAPK14), 124 nM; against c-Src, 21 nM; on Syk, 193 nM. Besides, the “% β-catenin induction” value in assay [1] (test compound 1 μg/mL) is reported as −8%; in assay [1] (test compound 5 μg/mL), −5%; in assay [1] (test compound 10 μg/mL), −2%.

`CNC(=O)c1cc(C(C)(C)C)cc(NC(=O)Nc2ccc(Oc3ccnc(Nc4cc(OC)cc(OCCOCCOCCOC)c4)n3)c3ccccc23)c1OC` [Example 13, 5-(tert-Butyl)-2-methoxy-3-(3-(4-((2-((3-methoxy-5-(2-(2-(2-methoxyethoxy)ethoxy)-ethoxy)phenyl)amino)pyrimidin-4-yl)oxy)naphthalen-1-yl)ureido)-N-methylbenzamide]: the IC50 on GSK 3α came to 824 nM; against p38 MAPKα (MAPK14), 28 nM; on c-Src, 9 nM; at Syk it was 35 nM. Moreover, the “% β-catenin induction” value in assay [1] (test compound 1 μg/mL) is reported as 7%; in assay [1] (test compound 5 μg/mL), 34%; in assay [1] (test compound 10 μg/mL), 26%.
